Measured values as given in patent US12691178B2, “Polysorbate mixtures having modified fatty acid ester distribution” (Genentech, Inc., priority 2020, dated 2026).
≈ marks a conversion by molar mass, not a printed value.

Test: FFA solubility at different formulation pH at constant PS20 concentration, fit to modified Henderson-Hasselbalch equation
Type: physicochemical
Conditions: constant of the 'pH term' of the FFA solubility model (Equation 1); for solubility: formulation containing PS20, aqueous with cosolvent or surfactant or cyclodextrin, read-out: Solubility of the non-ionized FFA (β1); for pKa: formulation containing polysorbate 20 (PS20), read-out: Experimentally determined pKa (β2)
Experimental: To create the model, first, FFA solubility was measured at different formulation pH's at a constant PS20 concentration. […] Second, FFA solubility was measured at different PS20 concentrations at a constant pH.

Row | solubility [µg/mL] | pKa | Compound
1 | 3.87 (≈ 16.9 µM) | 6.67 | CCCCCCCCCCCCCC(=O)O [Myristic (C14) Acid, myristic acid]
2 | 9.97 (≈ 49.8 µM) | 5.71 | CCCCCCCCCCCC(=O)O [Lauric (C12) Acid, lauric acid]
